# In ChEMBL document CHEMBL1201862, “PubChem BioAssay data set” (2004):
# Active and inactive are the calls of the source.
# What was measured:
# Beta-lactamase [1] = target: Beta-lactamase (Pseudomonas aeruginosa, UniProt Q79MP6);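 also: biochemical dose-response test of metallo-beta-lactamase enzyme inhibition, read out by epi-absorbance; purified recombinant IMP-1 metallo-beta-lactamase with nitrocefin as substrate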
# Beta-lactamase [2] = target: Beta-lactamase (Salmonella choleraesuis (strain SC-B67), UniProt Q5J463)
# Chain of Beta-lactamase (Salmonella choleraesuis (strain SC-B67), UniProt Q5J463) (Q5J463 whole entry): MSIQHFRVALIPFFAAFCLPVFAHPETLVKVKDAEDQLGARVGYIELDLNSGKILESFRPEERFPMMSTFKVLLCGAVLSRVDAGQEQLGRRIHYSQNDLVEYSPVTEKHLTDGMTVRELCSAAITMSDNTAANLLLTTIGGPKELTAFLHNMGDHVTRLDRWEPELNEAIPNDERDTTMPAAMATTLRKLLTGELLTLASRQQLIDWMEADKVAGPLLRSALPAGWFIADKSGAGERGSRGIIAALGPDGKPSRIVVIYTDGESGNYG
# ORF 73 = target: T1, ORF 73 (Human herpesvirus 8, UniProt O40947); assay: KSHV LANA DNA-binding disruption – biochemical, fluorescence polarization, cherry-picked samples, dose response (AID 504725); design: species or system Human gammaherpesvirus 8;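 also: fluorescence polarization of a labeled DNA duplex reporting LANA DNA binding; potency is for inhibitors that block LANA binding to the DNA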
# T1 sequence (O40947 whole entry): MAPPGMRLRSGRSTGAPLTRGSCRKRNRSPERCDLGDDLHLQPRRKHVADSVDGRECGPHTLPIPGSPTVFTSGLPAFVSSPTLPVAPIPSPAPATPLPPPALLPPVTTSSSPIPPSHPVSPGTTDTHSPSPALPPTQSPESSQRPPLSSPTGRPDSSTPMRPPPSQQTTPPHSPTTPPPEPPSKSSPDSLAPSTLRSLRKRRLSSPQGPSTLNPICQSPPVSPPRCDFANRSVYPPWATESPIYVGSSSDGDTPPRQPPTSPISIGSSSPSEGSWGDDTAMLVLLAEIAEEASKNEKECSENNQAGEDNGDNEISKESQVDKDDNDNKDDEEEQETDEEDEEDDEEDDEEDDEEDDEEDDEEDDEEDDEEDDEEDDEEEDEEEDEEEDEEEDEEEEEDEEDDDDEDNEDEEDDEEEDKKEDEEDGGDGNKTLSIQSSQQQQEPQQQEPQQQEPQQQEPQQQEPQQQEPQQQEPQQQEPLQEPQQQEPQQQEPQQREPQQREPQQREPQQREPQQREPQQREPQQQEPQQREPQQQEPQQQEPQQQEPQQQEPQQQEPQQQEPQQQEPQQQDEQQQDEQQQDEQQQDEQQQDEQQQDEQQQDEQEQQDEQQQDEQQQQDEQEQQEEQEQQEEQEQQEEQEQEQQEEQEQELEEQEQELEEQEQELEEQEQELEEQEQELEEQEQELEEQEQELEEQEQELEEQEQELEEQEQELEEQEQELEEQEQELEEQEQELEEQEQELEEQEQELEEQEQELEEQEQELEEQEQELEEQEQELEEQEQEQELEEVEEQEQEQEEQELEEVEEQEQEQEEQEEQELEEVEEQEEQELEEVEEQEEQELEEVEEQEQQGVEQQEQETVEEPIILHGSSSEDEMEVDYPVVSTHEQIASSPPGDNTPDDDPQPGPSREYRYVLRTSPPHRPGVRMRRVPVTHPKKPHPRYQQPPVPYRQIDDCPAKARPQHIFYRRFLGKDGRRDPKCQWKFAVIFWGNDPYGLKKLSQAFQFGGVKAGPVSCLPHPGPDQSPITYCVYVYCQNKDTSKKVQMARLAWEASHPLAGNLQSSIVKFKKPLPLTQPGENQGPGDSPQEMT
# [3] = target: UDP-galactopyranose mutase (Mycobacterium tuberculosis, UniProt P9WIQ1); assay: Inhibitors of Mycobacterium tuberculosis UDP-galactopyranose mutase (UGM) enzyme Measured in Biochemical System Using Plate Reader - 2105-02_Inhibitor_Dose_CherryPick_Activity. [Related pubchem assays (depositor defined):AID504439]
# Chain of UDP-galactopyranose mutase (P9WIQ1 whole entry): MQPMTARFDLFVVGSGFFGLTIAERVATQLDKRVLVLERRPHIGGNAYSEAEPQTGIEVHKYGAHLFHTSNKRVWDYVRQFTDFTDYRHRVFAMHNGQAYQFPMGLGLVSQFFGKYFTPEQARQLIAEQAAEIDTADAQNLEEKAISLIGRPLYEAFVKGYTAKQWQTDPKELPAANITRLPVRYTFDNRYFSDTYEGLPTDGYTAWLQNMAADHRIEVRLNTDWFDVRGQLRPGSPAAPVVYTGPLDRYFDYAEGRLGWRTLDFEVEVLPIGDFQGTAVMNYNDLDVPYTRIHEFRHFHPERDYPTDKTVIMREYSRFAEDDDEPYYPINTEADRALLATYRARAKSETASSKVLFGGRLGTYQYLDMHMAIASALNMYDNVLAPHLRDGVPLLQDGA
# Keap1/Nrf2 = Keap1/Nrf2 (Homo sapiens, UniProt Q14145); assay: disruptors of Keap1 binding to Nrf2 peptide – biochemical, fluorescence polarization, cherry-picked samples, dose response (AID 588683)
# Chain of Keap1/Nrf2 (Q16236 whole entry): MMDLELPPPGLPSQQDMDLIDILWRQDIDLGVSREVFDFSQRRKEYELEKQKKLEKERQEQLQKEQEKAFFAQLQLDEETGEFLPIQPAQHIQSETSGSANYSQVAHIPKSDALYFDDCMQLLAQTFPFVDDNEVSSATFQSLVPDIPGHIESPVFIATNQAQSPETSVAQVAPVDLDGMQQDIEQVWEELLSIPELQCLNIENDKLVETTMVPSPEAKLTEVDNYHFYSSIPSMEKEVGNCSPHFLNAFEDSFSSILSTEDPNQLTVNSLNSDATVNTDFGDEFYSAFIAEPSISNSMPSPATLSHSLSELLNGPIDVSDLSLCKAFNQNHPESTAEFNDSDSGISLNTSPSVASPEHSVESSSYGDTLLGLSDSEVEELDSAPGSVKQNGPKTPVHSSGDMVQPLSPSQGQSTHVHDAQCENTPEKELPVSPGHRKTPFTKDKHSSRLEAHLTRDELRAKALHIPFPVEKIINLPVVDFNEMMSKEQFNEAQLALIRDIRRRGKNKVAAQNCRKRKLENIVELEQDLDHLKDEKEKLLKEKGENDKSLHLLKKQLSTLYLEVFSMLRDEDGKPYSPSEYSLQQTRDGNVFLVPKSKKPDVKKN
# Chain of Keap1/Nrf2 (Q14145 whole entry): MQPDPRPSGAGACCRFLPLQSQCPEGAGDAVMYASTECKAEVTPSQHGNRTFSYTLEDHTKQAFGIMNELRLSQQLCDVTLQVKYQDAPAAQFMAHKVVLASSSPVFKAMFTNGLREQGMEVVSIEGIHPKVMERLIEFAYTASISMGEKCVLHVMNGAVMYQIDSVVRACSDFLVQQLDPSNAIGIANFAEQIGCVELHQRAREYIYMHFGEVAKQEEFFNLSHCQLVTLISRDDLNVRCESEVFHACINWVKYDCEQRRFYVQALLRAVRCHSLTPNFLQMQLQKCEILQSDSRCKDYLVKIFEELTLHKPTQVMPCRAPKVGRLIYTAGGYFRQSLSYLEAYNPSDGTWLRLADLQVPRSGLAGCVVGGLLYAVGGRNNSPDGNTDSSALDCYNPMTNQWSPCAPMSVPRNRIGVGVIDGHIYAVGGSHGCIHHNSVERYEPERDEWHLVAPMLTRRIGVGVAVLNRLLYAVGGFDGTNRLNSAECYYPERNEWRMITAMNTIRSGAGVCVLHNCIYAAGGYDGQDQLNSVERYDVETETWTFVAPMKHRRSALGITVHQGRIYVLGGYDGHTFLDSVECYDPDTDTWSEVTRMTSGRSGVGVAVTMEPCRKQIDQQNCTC
# [4] = test system: Streptococcus sp. 'group A'; assay: Streptococcus pyogenes SK(-)GAS viability under kanamycin – luminescence, BacTiterGlo, confirmation, counter-screen for streptokinase expression inhibitor project, dose response (AID 1900); format: functional, organism-based
# Streptokinase A = target: T2, Streptokinase A (Streptococcus pyogenes serotype M1, UniProt P10520); assay: viability-normalized secreted streptokinase activity reduction – plasminogen activation absorbance, OD405, dose response (AID 1914); format: functional, Streptococcus pyogenes M1 GAS;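 also: secreted streptokinase activity via plasminogen activation per viability signal from cell pellet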
# T2 sequence (P10520 whole entry): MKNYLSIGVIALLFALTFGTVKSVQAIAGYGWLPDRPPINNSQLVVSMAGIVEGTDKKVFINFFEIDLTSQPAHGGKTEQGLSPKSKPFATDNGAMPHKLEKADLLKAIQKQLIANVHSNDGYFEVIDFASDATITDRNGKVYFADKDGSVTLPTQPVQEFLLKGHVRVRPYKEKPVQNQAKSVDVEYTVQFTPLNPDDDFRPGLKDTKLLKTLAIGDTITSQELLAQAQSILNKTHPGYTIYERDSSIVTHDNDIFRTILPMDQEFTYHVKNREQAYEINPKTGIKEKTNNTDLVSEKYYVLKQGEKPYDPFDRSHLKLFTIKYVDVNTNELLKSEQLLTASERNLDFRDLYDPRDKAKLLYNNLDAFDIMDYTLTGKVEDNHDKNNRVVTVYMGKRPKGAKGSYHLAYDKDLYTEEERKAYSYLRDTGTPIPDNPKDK
# [5] = Trypanosoma cruzi growth suppression in host cells – NIH3T3 host cells, beta-gal luminescence, confirmation (AID 2044); format: functional, cell-based;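 also: intracellular parasites grown in NIH/3T3 mouse fibroblasts as host cells; luminescent beta-galactosidase reporter signal from transgenic T. cruzi replicating inside host cells; inhibitors lower the luminescence signal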
# [6] = NIH3T3 cell viability loss – ATP luminescence, mouse fibroblasts, counter-screen, dose response (AID 2010); format: functional, cell-based;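 also: cells exposed to compound for about 90 hours before reading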
# Streptococcus = assay: GAS UMAA2166 growth inhibition – luminescence, BacTiterGlo, counter-screen for streptokinase expression inhibitor project, dose response (AID 1915); format: functional, organism-based;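 also: potency for reduction of bacterial viability or growth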
# HEK293 = assay: EBV LMP1 TES2 canonical NF-kB signalling blockers – cell-based, HEK293, luciferase, cherry-pick, dose response (AID 588343); format: functional; details: Homo sapiens
# [7] = target: Latent membrane protein 1 (Human herpesvirus 4 (strain B95-8), UniProt P03230); assay: LMP1 TES1 pathway selectivity over dsRED control – imaging, HEK293T, dual-color eGFP/dsRED, cherry-picks, selectivity assay for LMP1 NF-kB inhibitor project, dose response (AID 588398); format: functional, cell-based
# Chain of Latent membrane protein 1 (P03230 whole entry): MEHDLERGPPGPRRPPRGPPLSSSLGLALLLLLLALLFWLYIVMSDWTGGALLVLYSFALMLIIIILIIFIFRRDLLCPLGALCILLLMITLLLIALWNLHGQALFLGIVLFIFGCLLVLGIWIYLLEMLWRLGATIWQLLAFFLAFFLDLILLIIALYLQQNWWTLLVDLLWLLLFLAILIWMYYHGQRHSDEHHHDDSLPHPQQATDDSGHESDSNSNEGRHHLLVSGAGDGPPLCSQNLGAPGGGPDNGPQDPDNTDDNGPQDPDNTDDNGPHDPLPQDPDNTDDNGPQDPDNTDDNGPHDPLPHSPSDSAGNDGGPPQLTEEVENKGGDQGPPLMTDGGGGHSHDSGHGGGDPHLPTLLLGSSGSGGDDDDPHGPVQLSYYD
# [8] = target: Glycogen synthase kinase-3 alpha (Homo sapiens, UniProt P49840); format: functional;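 also: GSK3A result taken from a broad kinome-wide kinase panel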
# Chain of Glycogen synthase kinase-3 alpha (P49840 whole entry): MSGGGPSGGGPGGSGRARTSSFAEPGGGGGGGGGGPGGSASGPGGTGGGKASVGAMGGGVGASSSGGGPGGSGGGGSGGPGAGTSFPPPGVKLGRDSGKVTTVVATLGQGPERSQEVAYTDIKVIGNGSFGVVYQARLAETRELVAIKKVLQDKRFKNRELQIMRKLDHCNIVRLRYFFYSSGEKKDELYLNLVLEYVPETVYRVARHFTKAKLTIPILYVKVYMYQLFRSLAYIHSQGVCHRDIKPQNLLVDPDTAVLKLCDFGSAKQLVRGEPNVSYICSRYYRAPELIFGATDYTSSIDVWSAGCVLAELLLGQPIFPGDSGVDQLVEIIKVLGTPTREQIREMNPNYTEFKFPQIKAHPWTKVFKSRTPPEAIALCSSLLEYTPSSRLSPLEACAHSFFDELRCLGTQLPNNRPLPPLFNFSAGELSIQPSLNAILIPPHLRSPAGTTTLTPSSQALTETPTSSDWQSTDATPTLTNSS
# [9] = target: Glycogen synthase kinase-3 beta (Homo sapiens, UniProt P49841); format: functional;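 also: value comes from a broad kinome profiling panel, with GSK3B as the panel member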
# Chain of Glycogen synthase kinase-3 beta (P49841 whole entry): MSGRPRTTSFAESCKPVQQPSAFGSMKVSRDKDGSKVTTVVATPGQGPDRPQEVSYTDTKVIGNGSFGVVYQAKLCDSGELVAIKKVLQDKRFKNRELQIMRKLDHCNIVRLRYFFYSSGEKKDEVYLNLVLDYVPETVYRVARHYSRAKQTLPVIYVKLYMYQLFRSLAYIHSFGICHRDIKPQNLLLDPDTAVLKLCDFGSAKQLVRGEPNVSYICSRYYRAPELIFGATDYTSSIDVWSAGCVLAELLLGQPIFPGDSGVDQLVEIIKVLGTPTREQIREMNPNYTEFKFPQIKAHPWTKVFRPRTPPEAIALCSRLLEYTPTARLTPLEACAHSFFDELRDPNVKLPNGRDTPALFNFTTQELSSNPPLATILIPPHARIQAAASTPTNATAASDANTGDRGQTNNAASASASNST
# [10] = target: Serine/threonine-protein kinase MRCK alpha (Homo sapiens, UniProt Q5VT25); format: functional
# [11] = target: T3, Sentrin-specific protease 1 (Homo sapiens, UniProt Q9P0U3); assay: SENP1 catalytic domain blockers, concentration series – biochemical, kinetic FRET, dose response (AID 651697); format: functional; details: read-out: IC50_Mean
# T3 sequence (Q9P0U3 whole entry, the tested form may be a part): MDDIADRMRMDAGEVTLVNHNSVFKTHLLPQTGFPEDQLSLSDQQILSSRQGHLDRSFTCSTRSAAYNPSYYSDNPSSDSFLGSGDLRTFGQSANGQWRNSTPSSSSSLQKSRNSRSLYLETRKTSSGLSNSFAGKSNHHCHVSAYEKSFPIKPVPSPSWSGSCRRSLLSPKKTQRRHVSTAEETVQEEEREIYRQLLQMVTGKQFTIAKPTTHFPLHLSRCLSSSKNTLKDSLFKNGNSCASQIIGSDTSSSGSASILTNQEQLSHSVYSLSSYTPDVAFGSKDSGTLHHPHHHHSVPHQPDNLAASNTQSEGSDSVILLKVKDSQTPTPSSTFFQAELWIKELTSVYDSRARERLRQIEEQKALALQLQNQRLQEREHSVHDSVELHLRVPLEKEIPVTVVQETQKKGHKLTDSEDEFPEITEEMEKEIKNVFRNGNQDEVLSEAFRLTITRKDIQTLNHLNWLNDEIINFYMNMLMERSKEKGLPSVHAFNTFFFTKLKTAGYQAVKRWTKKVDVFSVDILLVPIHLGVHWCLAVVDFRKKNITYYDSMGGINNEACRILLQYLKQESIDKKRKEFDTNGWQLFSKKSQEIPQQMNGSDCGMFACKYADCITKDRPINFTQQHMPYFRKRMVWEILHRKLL
# [12] = target: T3, Sentrin-specific protease 1; assay: Dose response confirmation of small molecule inhibitors of the catalytic domain of the SUMO protease, SENP1 in a FRET assay.; format: functional; details: read-out: IC50_Mean
# [13] = target: T4, Apoptotic protease-activating factor 1 (Homo sapiens, UniProt O14727); assay: SAR analysis of small molecule Activators of Apaf-1 in a Fluorescent assay.; format: functional; details: read-out: EC50_Mean;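 also: caspase-3 cleavage of fluorogenic Rh110 DEVD substrate downstream of apoptosome activation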
# T4 sequence (O14727 whole entry): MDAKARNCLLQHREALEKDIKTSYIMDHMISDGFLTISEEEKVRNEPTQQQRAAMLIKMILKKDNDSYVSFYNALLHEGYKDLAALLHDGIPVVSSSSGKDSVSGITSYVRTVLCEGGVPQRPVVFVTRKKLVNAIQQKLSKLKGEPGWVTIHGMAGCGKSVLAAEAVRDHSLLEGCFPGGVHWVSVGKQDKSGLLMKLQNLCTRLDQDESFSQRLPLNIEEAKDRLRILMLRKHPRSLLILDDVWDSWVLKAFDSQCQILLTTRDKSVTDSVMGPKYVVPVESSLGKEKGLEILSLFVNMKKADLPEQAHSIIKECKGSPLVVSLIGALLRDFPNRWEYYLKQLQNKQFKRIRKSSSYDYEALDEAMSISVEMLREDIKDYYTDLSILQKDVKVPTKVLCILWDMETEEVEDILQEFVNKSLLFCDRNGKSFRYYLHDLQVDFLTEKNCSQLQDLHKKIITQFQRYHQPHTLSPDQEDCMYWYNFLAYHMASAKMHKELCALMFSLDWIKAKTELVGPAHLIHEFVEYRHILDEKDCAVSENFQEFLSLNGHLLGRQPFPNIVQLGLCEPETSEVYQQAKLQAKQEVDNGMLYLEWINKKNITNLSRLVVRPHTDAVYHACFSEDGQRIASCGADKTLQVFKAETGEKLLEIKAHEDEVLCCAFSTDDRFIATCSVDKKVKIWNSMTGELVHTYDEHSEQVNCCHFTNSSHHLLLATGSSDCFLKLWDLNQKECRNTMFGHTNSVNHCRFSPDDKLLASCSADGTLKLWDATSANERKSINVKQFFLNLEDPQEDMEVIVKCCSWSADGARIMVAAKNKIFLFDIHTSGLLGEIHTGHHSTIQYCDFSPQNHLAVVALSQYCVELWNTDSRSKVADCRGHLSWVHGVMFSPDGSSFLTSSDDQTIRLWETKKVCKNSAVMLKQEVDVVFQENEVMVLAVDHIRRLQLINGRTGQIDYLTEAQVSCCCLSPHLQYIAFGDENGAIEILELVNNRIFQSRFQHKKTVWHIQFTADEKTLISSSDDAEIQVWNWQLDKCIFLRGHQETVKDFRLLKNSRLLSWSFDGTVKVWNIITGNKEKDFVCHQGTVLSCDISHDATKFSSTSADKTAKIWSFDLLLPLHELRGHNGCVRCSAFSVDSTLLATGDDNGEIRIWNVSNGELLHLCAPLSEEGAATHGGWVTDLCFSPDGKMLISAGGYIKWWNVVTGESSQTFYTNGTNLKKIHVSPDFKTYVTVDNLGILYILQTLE
# [14] = activation of miR-122 Renilla sensor silencing – cell-based, Huh7 psiCHECK-miR122, Renilla luciferase, cherry-picked, dose response (AID 651956); format: functional;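 also: huh7 hepatoma cells stably carrying a psiCHECK-2 miR-122 sensor plasmid; renilla luciferase signal reporting endogenous miR-122 activity after 48 h compound exposure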
# Chain of Beta-lactamase (Pseudomonas aeruginosa, UniProt Q79MP6) (Q79MP6 whole entry): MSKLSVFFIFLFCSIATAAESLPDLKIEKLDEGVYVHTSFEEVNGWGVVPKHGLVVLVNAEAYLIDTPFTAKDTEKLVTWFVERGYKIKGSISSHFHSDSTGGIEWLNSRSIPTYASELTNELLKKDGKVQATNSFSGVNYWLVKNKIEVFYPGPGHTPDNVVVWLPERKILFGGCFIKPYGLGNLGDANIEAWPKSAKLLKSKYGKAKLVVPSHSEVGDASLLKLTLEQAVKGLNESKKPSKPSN
smiles,measurement,setting,value
Cc1cccc(N2C(=O)c3cccc4c(N)ccc(c34)C2=O)c1,IC50,Beta-lactamase [1],21.4 µM (inactive)
same,IC50,Beta-lactamase [2],10.1 µM (inactive)
same,AC50,ORF 73,5.93 µM (active)
same,AC50,[3],1.79 µM (active)
same,AC50,Keap1/Nrf2,1.82 µM (active)
CCCc1ccc(-c2cc(C(=O)N/N=C/c3ccc([N+](=O)[O-])o3)c3ccccc3n2)cc1,EC50,[4],2.75 µM (active)
same,EC50,Streptokinase A,> 150 µM (not active)
same,EC50,[5],0.194 µM (active)
same,EC50,[6],8.91 µM (active)
same,EC50,Streptococcus,2.59 µM (active)
same,AC50,HEK293,2.89 µM (active)
same,AC50,[7],112 µM (active)
CC(=O)Nc1nonc1-n1nnc(C(=O)NN=Cc2cccs2)c1-c1ccccc1,Ki,[8],3.16 µM (active)
same,Ki,[9],6.31 µM (active)
same,Ki,[10],10 µM (active)
O=C1CC[C@@H]2C[C@@]3(C[C@@H]4CCN1[C@H]24)Nc1cc([N+](=O)[O-])ccc1N=C3NCc1ccccc1,IC50,[11],18.3 µM (active)
same,IC50,[12],9.31 µM (active)
COC(=O)[C@@H]1COC(c2ccc(OC)c(C(F)(F)F)c2)=N1,EC50,[13],> 100 µM (inactive)
CN1C(=O)c2cc(NC(=O)c3cccs3)ccc2OC[C@H]2O[C@H](CC(=O)NCCN3CCCCC3)CC[C@@H]21,AC50,[14],43.3 µM (active)
